Reference: ChEMBL document CHEMBL1828557, “Biophysical and physicochemical methods differentiate highly ligand-efficient human D-amino acid oxidase inhibitors” (Eur J Med Chem, 2011)
In brackets after ≈: the same amount, converted by molar mass.

Legend:
[1] = Apparent permeability from apical to basolateral side of MDCK cells expressing MDR1 by LC-MS/MS analysis; assay type: ADME, cell-based, Canis lupus familiaris; details: dog
[2] = target: T1, D-amino-acid oxidase (Homo sapiens, UniProt P14920)
Target sequence in this assay (P14920 whole entry, looked up): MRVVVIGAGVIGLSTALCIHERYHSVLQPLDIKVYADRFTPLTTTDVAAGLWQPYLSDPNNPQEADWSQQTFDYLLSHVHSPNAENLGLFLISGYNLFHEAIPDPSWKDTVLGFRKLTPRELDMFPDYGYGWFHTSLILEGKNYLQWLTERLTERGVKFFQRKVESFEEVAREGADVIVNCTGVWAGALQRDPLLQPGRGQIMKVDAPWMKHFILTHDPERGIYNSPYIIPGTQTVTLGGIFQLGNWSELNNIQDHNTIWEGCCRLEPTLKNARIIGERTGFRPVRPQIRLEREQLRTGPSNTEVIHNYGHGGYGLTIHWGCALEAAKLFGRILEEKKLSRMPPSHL

[3] = target: T1, D-amino-acid oxidase; assay: Binding affinity to human recombinant DAAO by steady state study scintillation proximity assay
Target sequence in this assay (P14920 whole entry): as the sequence (P14920 whole entry, looked up) above

[4] = target: T1, D-amino-acid oxidase; assay: Binding affinity to human recombinant DAAO by kinetic study scintillation proximity assay
Target sequence in this assay (P14920 whole entry): as the sequence (P14920 whole entry, looked up) above

[5] = Plasma clearance in Wistar rat plasma at 1 mg/kg, iv; assay type: ADME, organism-based; set-up: dose 1 mg/kg, route intravenous
[6] = target: T1, D-amino-acid oxidase; assay: Inhibition of human DAAO
Target sequence in this assay (P14920 whole entry): as the sequence (P14920 whole entry, looked up) above

[7] = Kinetic solubility of the compound in 0.01 M phosphate buffered saline at pH 7.4 assessed as maximum solubility after 2 hrs; assay type: physicochemical; details: read-out: Kinetic_solubility
[8] = Thermodynamic solubility of the compound in phosphate buffer at pH 7.4 after 24 hrs by HPLC analysis; assay type: physicochemical; details: read-out: Therm_solubility
[9] = Dissociation constant, pKa of the compound by dip probe absorption spectroscopy technique; assay type: physicochemical
[10] = Tmax in Swiss mouse brain at 10 mg/kg, po; assay type: ADME, organism-based; set-up: dose 10 mg/kg, route oral
[11] = Kinetic solubility of the compound in 0.01 M phosphate buffered saline at pH 7.4 assessed as minimum solubility after 2 hrs; assay type: physicochemical; details: read-out: Kinetic_solubility
[12] = target: T1, D-amino-acid oxidase; assay: Binding affinity to human recombinant DAAO by isothermal titration calorimeter analysis
Target sequence in this assay (P14920 whole entry): as the sequence (P14920 whole entry, looked up) above

[13] = Oral bioavailability (0 to last) in Swiss mouse plasma at 10 mg/kg; assay type: ADME, organism-based
[14] = Apparent permeability across apical to basolateral side in human Caco2 cells by LC-MS/MS analysis; assay type: ADME, cell-based; details: Caco-2
[15] = Octanol-water partition coefficient, log P of the neutral compound by pH-metric method; assay type: physicochemical
[16] = target: T2, D-aspartate oxidase (Bos taurus, UniProt P31228); assay: Inhibition of bovine recombinant DASPO expressed in Escherichia coli preincubated for 15 mins by fluorescence assay
T2 sequence (P31228 whole entry): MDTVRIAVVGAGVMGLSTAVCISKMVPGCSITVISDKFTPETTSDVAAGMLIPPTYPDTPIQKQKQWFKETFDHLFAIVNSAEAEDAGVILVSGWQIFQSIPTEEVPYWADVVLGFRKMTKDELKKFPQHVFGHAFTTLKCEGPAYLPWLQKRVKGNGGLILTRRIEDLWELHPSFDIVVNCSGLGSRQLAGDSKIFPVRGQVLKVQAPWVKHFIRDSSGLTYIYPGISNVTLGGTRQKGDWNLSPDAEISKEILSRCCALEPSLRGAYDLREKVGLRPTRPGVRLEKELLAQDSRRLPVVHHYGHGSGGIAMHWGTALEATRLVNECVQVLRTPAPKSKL

[17] = Plasma clearance in Swiss mouse plasma at 1 mg/kg, iv; assay type: ADME, organism-based; set-up: dose 1 mg/kg, route intravenous
[18] = Ratio of drug level (0 to last) in brain to plasma in Wistar rat at 10 mg/kg, po; assay type: ADME, organism-based; set-up: dose 10 mg/kg, route oral; details: brain and plasma, read-out: BPR
[19] = tested on: Brain; assay: AUC (0 to last) in Swiss mouse brain at 10 mg/kg, po; assay type: ADME, organism-based; set-up: time 0 - last, dose 10 mg/kg, route oral; details: in vivo
[20] = Terminal half life in Wistar rat brain at 10 mg/kg, po; assay type: ADME, organism-based; set-up: dose 10 mg/kg, route oral; details: read-out: beta t1/2 (converted)
[21] = Cmax in Swiss mouse brain at 10 mg/kg, po; assay type: ADME, organism-based; set-up: dose 10 mg/kg, route oral
[22] = Volume of distribution in Wistar rat plasma at 1 mg/kg, iv; assay type: ADME, organism-based; set-up: dose 1 mg/kg, route intravenous
[23] = tested on: Brain; assay: AUC (0 to last) in Wistar rat brain at 10 mg/kg, po; assay type: ADME, organism-based; set-up: dose 10 mg/kg, route oral, time 0 - last; details: in vivo
[24] = Tmax in Wistar rat brain at 10 mg/kg, po; assay type: ADME, organism-based; set-up: dose 10 mg/kg, route oral
[25] = Oral bioavailability (0 to last) in Wistar rat plasma at 10 mg/kg; assay type: ADME, organism-based
[26] = Cmax in Wistar rat brain at 10 mg/kg, po; assay type: ADME, organism-based; set-up: dose 10 mg/kg, route oral
[27] = target: T1, D-amino-acid oxidase; assay: Inhibition of human recombinant DAAO expressed in Escherichia coli assessed as H2O2 production from D-serine degradation after 30 mins by fluorescence assay
Target sequence in this assay (P14920 whole entry): as the sequence (P14920 whole entry, looked up) above

[28] = Ratio of drug level (0 to last) in brain to plasma in Swiss mouse at 10 mg/kg, po; assay type: ADME, organism-based; set-up: dose 10 mg/kg, route oral; details: brain and plasma, read-out: BPR
[29] = Terminal half life in Swiss mouse brain at 10 mg/kg, po; assay type: ADME, organism-based; set-up: dose 10 mg/kg, route oral; details: read-out: beta t1/2 (converted)
[30] = Volume of distribution in Swiss mouse plasma at 1 mg/kg, iv; assay type: ADME, organism-based; set-up: dose 1 mg/kg, route intravenous
[31] = tested on: Brain; assay: AUC (0 to last) in Swiss mouse brain at 30 mg/kg, po; assay type: ADME, organism-based; set-up: time 0 - last, dose 30 mg/kg, route oral; details: in vivo
[32] = Plasma clearance in Swiss mouse plasma at 10 mg/kg, iv; assay type: ADME, organism-based; set-up: dose 10 mg/kg, route intravenous
[33] = Ratio of drug level (0 to last) in brain to plasma in Swiss mouse at 30 mg/kg, po; assay type: ADME, organism-based; set-up: dose 30 mg/kg, route oral; details: brain and plasma, read-out: BPR
[34] = Volume of distribution in Swiss mouse plasma at 10 mg/kg, iv; assay type: ADME, organism-based; set-up: dose 10 mg/kg, route intravenous
[35] = Cmax in Swiss mouse brain at 30 mg/kg, po; assay type: ADME, organism-based; set-up: dose 30 mg/kg, route oral
[36] = Tmax in Swiss mouse brain at 30 mg/kg, po; assay type: ADME, organism-based; set-up: dose 30 mg/kg, route oral
[37] = Oral bioavailability (0 to last) in Wistar rat plasma at 30 mg/kg; assay type: ADME, organism-based
[38] = Plasma clearance in Wistar rat plasma at 10 mg/kg, iv; assay type: ADME, organism-based; set-up: dose 10 mg/kg, route intravenous
[39] = tested on: Brain; assay: AUC (0 to last) in Wistar rat brain at 30 mg/kg, po; assay type: ADME, organism-based; set-up: time 0 - last, dose 30 mg/kg, route oral; details: in vivo
[40] = Ratio of drug level (0 to last) in brain to plasma in Wistar rat at 30 mg/kg, po; assay type: ADME, organism-based; set-up: dose 30 mg/kg, route oral; details: brain and plasma, read-out: BPR
[41] = Volume of distribution in Wistar rat plasma at 10 mg/kg, iv; assay type: ADME, organism-based; set-up: dose 10 mg/kg, route intravenous
[42] = Tmax in Wistar rat brain at 30 mg/kg, po; assay type: ADME, organism-based; set-up: dose 30 mg/kg, route oral
[43] = Terminal half life in Wistar rat brain at 30 mg/kg, po; assay type: ADME, organism-based; set-up: dose 30 mg/kg, route oral; details: read-out: beta t1/2 (converted)
[44] = Terminal half life in Swiss mouse brain at 30 mg/kg, po; assay type: ADME, organism-based; set-up: dose 30 mg/kg, route oral; details: read-out: beta t1/2 (converted)
[45] = Oral bioavailability (0 to last) in Swiss mouse plasma at 30 mg/kg; assay type: ADME, organism-based
[46] = Cmax in Wistar rat brain at 30 mg/kg, po; assay type: ADME, organism-based; set-up: dose 30 mg/kg, route oral
[47] = Intrinsic clearance in human liver microsomes; assay type: ADME, Microsome
[48] = target: Voltage-gated inwardly rectifying potassium channel KCNH2 (Homo sapiens, UniProt Q12809); assay: Inhibition of human ERG expressed in HEK293 cells by whole cell voltage patch clamp technique; assay type: cell-based
Chain of Voltage-gated inwardly rectifying potassium channel KCNH2 (Q12809 whole entry): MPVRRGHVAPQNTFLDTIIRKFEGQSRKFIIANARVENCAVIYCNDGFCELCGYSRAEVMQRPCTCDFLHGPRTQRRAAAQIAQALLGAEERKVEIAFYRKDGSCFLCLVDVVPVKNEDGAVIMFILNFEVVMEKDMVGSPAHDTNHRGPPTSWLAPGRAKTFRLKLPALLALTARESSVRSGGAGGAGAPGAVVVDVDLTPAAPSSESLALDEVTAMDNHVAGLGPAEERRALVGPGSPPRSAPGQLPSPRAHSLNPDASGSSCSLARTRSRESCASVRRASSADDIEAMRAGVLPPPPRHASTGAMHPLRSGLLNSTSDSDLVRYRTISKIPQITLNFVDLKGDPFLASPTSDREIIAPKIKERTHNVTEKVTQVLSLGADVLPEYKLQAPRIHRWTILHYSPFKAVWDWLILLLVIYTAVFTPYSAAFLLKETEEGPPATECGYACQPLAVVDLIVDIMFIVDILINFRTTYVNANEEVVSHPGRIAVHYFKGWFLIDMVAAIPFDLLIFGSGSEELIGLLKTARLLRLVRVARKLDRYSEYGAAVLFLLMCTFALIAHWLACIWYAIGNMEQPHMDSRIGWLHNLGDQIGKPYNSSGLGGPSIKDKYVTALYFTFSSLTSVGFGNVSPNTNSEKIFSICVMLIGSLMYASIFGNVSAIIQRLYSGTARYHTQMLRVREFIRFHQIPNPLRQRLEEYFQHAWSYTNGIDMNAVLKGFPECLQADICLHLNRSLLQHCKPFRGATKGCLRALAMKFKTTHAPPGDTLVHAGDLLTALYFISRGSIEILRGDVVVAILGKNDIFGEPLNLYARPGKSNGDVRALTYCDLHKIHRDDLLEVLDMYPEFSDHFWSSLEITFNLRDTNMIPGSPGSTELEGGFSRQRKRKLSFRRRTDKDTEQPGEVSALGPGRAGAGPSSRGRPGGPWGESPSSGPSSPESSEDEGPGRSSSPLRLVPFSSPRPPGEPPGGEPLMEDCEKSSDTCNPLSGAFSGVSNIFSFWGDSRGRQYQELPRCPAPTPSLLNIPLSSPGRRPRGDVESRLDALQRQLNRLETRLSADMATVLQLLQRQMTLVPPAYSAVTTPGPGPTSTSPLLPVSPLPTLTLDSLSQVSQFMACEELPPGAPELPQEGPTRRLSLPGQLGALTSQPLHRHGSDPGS

Compound	Papp A→B [1] [×10⁻⁶ cm/s]	T1/2 [2] [h]	Kd [4] [nM]	clearance [5] [mL/min/kg]	IC50 [6] [nM]	solubility kinetic at 2 h [7] [µM]	solubility thermodynamic at 24 h [8] [µM]	pKa [9]	Tmax [10] [h]	solubility kinetic at 2 h [11] [µM]	Kd [12] [nM]	bioavailability [13] [%]	Papp A→B [14] [×10⁻⁶ cm/s]	logP [15]	IC50 [16] [nM]	clearance [17] [mL/min/kg]	Kp [18]	AUClast [19] [ng·h/mL]	half-life [20] [h]	Cmax [21] [ng/mL]	also measured
O=C(O)c1cc2sccc2[nH]1	6	0.167	6	9	145	> 100	> 460	3.88	0.25	100 (≈ 16.7 µg/mL)	19	56	47	2.11	> 10000	21	0.05	302	2	336	Kd [3]: 33 nM; Vd [22]: 2.1 L/kg; AUClast [23]: 1940 ng·h/mL; Tmax [24]: 1 h; bioavailability [25]: 100%; Cmax [26]: 648 ng/mL; IC50 [27]: 11.9 nM; Kp [28]: 0.06; half-life [29]: 1 h; Vd [30]: 0.4 L/kg
Cc1cc(C(=O)O)n[nH]1	–	–	900	–	910	> 100	> 460	3.59	–	100 (≈ 12.6 µg/mL)	617	–	–	0.45	> 10000	–	–	–	–	–	AUClast [31]: 831 ng·h/mL; clearance [32]: 10 mL/min/kg; Kp [33]: 0.1; Vd [34]: 0.4 L/kg; Cmax [35]: 359 ng/mL; Tmax [36]: 0.5 h; bioavailability [37]: 97%; clearance [38]: 11 mL/min/kg; AUClast [39]: 631 ng·h/mL; Kp [40]: 0.04; Vd [41]: 3.5 L/kg; Tmax [42]: 1 h; half-life [43]: 3 h; half-life [44]: 1 h; bioavailability [45]: 33%; IC50 [27]: 473 nM; Cmax [46]: 112 ng/mL
Oc1noc2cc(Cl)ccc12	75	0.167	–	5	–	> 100	433 (≈ 73.4 µg/mL)	4.07	0.25	100 (≈ 17 µg/mL)	–	29	77	2.68	> 10000	10	0.04	139	2	228	Vd [22]: 0.3 L/kg; AUClast [23]: 340 ng·h/mL; microsomal CLint [47]: 4.7 µL/min/mg; Tmax [24]: 0.5 h; bioavailability [25]: 28%; Cmax [26]: 319 ng/mL; Kp [28]: 0.03; IC50 [48]: > 10000 nM; half-life [29]: 1 h; Vd [30]: 0.2 L/kg
